The values below come from US9029414B2, “Triterpenoid compounds and methods of use thereof” (Biotechnology Research Corporation, priority 2008, dated 2015).

For one assay, the system named is kainate receptor. The experiment in a line: Radioligand competition binding assay, kainate. Conditions: 10 μM in duplicate. Here is the method: DA001 was evaluated against 109 receptor binding assays and 17 enzyme assays, comprising of selective, central and peripheral therapeutically-relevant targets. Radioligand competition assays were conducted whereby DA001 was tested at one concentration (10 μM) in duplicate. […] It could compete with the radioligand [^125I-NDP-alpha-melanocyte-stimulating hormone (α-MSH)] binding for MC1 and MC4 but not MC3 and MC5 nor the related family, the melanin concentrating hormone receptors (MCH1 and MCH2).
For orientation: Loss of bound radioactivity is the signal in a displacement assay; it reports binding, not function.

In assay [1] the test system is NGF, BDNF, NT-3 and NT-4 expression in cortical neurons. Kind of assay: Neurotrophin gene expression (real-time PCR) in cortical neurons following NMDA treatment. It counts as cell-based. The note with it: 24 hrs pre-treatment, then NMDA 20 μM 20 min; vs DMSO+NMDA. Here is the method:
Cortical neurons were incubated with DA001 or the DMSO control for 24 hrs, followed by treatment with NMDA (20 μM) or water for 20 min. Gene expression was normalized against the house-keeping gene, hypoxanthine phosphoribosyltransferase 1 (HPRT1) and glyceraldehyde 3-phosphate dehydrogenase (GAPDH) and compared to the control (DMSO) with NMDA treatment. Relative changes in gene expression induced by DA001+NMDA was compared with DMSO+NMDA.
Cortical neurons of 11 DIV-12 DIV were pre-incubated with DA001 or DMSO for 24 hours. Cells were washed in Locke's medium without magnesium for 15 min, followed by the treatment of NMDA (20 μM) or water for 20 min. Neurons were incubated with normal growth medium and total RNA were extracted at different time intervals after or without NMDA treatment. Total RNA was extracted using RNeasy Mini kit (Qiagen) according to the manufacturer's protocol, and was reverse-transcribed into single-stranded cDNA with SuperScript II Reverse Transcriptase (Invitrogen) and oligo-dT primers. Real-time Quantitative PCR was performed using Power SYBR Green PCR Master Mix (Applied Biosystems) on the Mx3000P Real-Time PCR System (Stratagene). Thermal cycling was initiated with a 10-min denaturation step at 95° C., followed by 40 cycles of 95° C. for 30 sec, 60° C. for 1 min and 72° C. for 30 sec. The final product was subjected to a Meltcurve detection at the end of the reaction. Regulation of the gene expression was normalized against home gene, hypoxanthine phosphoribosyltransferase 1 (HPRT1) and glyceraldehyde 3-phosphate dehydrogenase (GAPDH). Real-time PCR primers are as follows.
Cortical neurons were pre-treated with DA001 after which the cells were subjected to NMDA insult. The expression of neurotrophins was measured at three different time intervals. DA001 induced NGF, BDNF and NT-3 expression but not NT-4 under the same conditions. FIG. 3 illustrates that cortical neurons were incubated with DA001 or the DMSO control for 24 hrs, followed by treatment with NMDA (20 μM) or water for 20 min. […]

The test system of assay [2] is scopolamine-induced memory impaired mice. The experiment in a line: Morris water maze, scopolamine-induced memory impairment. Type of assay: in vivo. Conditions: 10 mg/kg orally, scopolamine 4 mg/kg i.p.; day 4 and day 5. Here is the method:
6-8 week old outbred male I.C.R. mice, weighing 25-35 g were housed two per cage in a climatically controlled animal room (23-25° C.) under 12 hours light/dark cycling. The animals were allowed access to water and food ad lib. The mice used for the experiment were brought to particular laboratory conditions for two days. All the experiments were conducted between 14:00 and 18:00. […] The experimental mice were randomly assigned into 4 or 6 groups, each consisting of 12 mice with similar mean body weights and age. The test compound was dissolved in physiological saline before the experiments each day. […]
Each mouse was subjected to 4 trials per day for 5 consecutive days. […] The probe trial (without platform) was assessed within a 60 s period on the fifth day of behavioral testing (one experiment), and the time spent in the southeast quadrant where the escape platform had been set during training was recorded computationally and presented as percentage of spatial bias.
The two-way ANOVA with repeated measures was used to analyze latency values, and calculated as the mean latency periods for each mouse. (Data are expressed as means±S.E.M. by using 2-way ANOVA). One-way ANOVA followed by Duncan's multiple-range test (data expressed as mean±S.E.M. *P<0.05 and **P<0.01 versus scopolamine) was used to analyze group differences of the data collected during probe trials. […]

With `C=C(C)[C@@H]1CC[C@]2(C(=O)O)CC[C@]3(C)C(CC[C@@H]4[C@@]5(C)CC[C@H](O[C@@H]6OC[C@H](O)[C@H](O)[C@H]6O[C@@H]6O[C@@H](C)[C@H](O)[C@@H](O)[C@H]6O)[C@@](C)(CO)[C@@H]5CC[C@]43C)[C@@H]12` (stereo partly drawn) [DA001, 3-O-[α-L-rhamnopyranosyl-(1→2)-α-L-arabinopyranosyl]-3,23-dihydroxy-20(29)-lupen-28-oic acid], the “% inhibition of control specific binding” value in the assay with kainate receptor is reported as 35%. Moreover, in assay [1], the BDNF expression result is given as “induced”, the NGF expression entry is listed as “induced” and the NT-3 expression entry is listed as “induced”.
Consider `C=C(C)[C@@H]1CC[C@]2(/C=N/O)CC[C@]3(C)C(CCC4[C@@]5(C)CCC(=O)[C@@](C)(CO)[C@@H]5CC[C@]43C)C12` (some centres unmarked) [DA021], for which, in assay [2], the escape latency result was “significantly reversed the increased escape latency”.
